The values below come from patent US20170022171A1, “2,5-DISUBSTITUTED CYCLOPENTANECARBOXYLIC ACIDS AND THEIR USE” (Bayer Pharma Aktiengesellschaft, priority 2014, published 2017).

pIC50: −log10 of the molar value.

By pIC50 is commonly meant the IC50 on a negative log10 scale, so that one unit is a factor of ten. Lower therefore signals a high IC50.

Format in all cases: biochemical
Test [1] has as its target T1, human macrophage elastase (HME/hMMP-12) (Homo sapiens, UniProt P39900).
T1 construct: 0.5 nM HME; purchased R&D Systems 917-MP
The test can be described thus: In vitro HME inhibition test (standard or high-sensitivity). Conditions: in some cases mean values. The gist of the method: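 Fluorogenic assay: 0.5 nM autoactivated HME with 5 µM Mca-Pro-Leu-Gly-Leu-Glu-Glu-Ala-Dap(Dnp)-NH2 in HEPES pH 7.4 buffer (NaCl, CaCl2, ZnCl2, EDTA, Brij), 2 h at 37 °C; ex 323/em 393 nm. IC50 from fluorescence versus concentration. High-sensitivity format: ~0.05 nM enzyme, ~16 h incubation.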

Another test deals with T2, MMP-1 (Homo sapiens, UniProt P03956).
T2 construct: purchased R&D Systems 901-MP
T2 sequence (P03956 100-469): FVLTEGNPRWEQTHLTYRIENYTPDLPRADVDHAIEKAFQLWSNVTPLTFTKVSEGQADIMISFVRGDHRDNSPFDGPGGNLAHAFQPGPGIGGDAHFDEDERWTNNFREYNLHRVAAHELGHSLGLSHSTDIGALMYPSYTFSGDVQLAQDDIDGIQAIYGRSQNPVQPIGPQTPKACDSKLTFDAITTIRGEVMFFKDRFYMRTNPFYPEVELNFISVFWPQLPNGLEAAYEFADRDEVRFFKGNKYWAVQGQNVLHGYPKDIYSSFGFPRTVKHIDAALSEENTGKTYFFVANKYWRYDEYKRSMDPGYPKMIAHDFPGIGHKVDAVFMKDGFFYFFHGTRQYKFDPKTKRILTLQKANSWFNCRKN
Description: In vitro MMP-1 inhibition test. The source says: (§1) The MMP-mediated amidolytic cleavage of a suitable peptide substrate leads to an increase in fluorescent light here too. The signal intensity of the fluorescent light is directly proportional to the enzyme activity. The active concentration of a test compound at which half the enzyme is inhibited (50% signal intensity of the fluorescent light) is reported as the IC50 value.
(§2) Recombinant MMP-1 (from R&D Systems, 901-MP) is chemically activated in accordance with the manufacturer's instructions using APMA. 1 μl of the test compound to be analysed (as a solution in DMSO, suitable concentrations, for example, 1 nM to 30 μM) is pipetted into 24 μl of activated enzyme (final concentration, for example, 2 nM) in reaction buffer (50 mM Tris/HCl pH 7.5, 10 mM CaCl2, 150 mM NaCl, 0.05% Brij®-35) in a white 384-hole microtiter plate (MTP). The enzymatic reaction is started by adding the intramolecularly quenched Mca-Pro-Leu-Gly-Leu-Dpa(Dnp)-Ala-Arg-NH2 substrate (final concentration, for example, 10 μM; R&D Systems, ES-001), so as to result in a total test volume of 50 μl. The course of the MMP-1 reaction is measured by measuring the fluorescence intensity (excitation 320 nm, emission 410 nm) over a suitable period of time (for example over 120 min at a temperature of 32° C.).

A further test concerns the target T3, MMP-10 (Homo sapiens, UniProt P09238).
T3 construct: purchased R&D Systems 910-MP
The test can be described thus: In vitro MMP-10 inhibition test.
Text: as §1
as §2, with “MMP-10” for “MMP-1”, “910-MP)” for “901-MP)”, “Mca-Arg-Pro-Lys-Pro-Val-Glu-Nval-Trp-Arg-Lys(Dnp)-NH2” for “Mca-Pro-Leu-Gly-Leu-Dpa(Dnp)-Ala-Arg-NH2”, “ES-002),” for “ES-001),”

For another test, the target named is T4, MMP-14 (Homo sapiens, UniProt P50281).
T4 construct: purchased R&D Systems 918-MP
Description: In vitro MMP-14 inhibition test.
Text: as §1
Recombinant MMP-14 (from R&D Systems, 918-MP) is enzymatically activated in accordance with the manufacturer's instructions using recombinant furin (from R&D Systems, 1503-SE). 1 μl of the test compound to be analysed (as a solution in DMSO, suitable concentrations e.g. 1 nM to 30 μM) is pipetted into 24 μl of activated enzyme (final concentration e.g. 0.5 nM) in reaction buffer (50 mM Tris/HCl pH 7.5, 10 mM CaCl2, 150 mM NaCl, 0.05% Brij®-35) in a white 384-hole microtiter plate (MTP). The enzymatic reaction is started by adding the intramolecularly quenched Mca-Lys-Pro-Leu-Gly-Leu-Dpa(Dnp)-Ala-Arg-NH2 substrate (final concentration, for example, 5 μM; R&D Systems, ES-010), so as to result in a total test volume of 50 The course of the MMP-14 reaction is measured by measuring the fluorescence intensity (excitation 320 nm, emission 410 nm) over a suitable period of time (for example over 120 min at a temperature of 32° C.).

T3 sequence (P09238 99-476): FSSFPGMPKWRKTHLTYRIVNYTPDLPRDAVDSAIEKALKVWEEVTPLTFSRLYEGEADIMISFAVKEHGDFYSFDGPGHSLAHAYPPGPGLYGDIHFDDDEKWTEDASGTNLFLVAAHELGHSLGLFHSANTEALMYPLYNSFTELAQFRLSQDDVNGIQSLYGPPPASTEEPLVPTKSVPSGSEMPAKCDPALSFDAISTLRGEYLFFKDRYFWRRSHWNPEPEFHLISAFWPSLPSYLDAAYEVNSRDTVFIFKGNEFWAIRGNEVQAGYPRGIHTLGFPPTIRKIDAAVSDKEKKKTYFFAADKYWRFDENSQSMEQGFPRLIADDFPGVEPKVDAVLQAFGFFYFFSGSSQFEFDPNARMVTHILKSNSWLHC
T1 sequence (P39900 106-470): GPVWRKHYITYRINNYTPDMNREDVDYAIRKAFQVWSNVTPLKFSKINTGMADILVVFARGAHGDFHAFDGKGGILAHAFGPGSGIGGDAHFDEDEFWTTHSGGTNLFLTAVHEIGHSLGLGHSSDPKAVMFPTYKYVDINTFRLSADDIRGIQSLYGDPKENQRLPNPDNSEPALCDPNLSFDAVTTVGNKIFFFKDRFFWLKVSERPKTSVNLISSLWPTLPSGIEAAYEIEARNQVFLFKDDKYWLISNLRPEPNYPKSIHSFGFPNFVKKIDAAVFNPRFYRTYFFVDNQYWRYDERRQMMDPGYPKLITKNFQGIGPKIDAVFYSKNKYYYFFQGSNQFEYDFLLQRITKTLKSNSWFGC

Turning to `O=C(O)[C@H]1[C@H](Cn2nnc3ccc(C(F)(F)F)cc3c2=O)CC[C@@H]1C(=O)c1ccc(OCC2CCCCC2)cc1` (racemic) [Example 40, (+/−)-(1RS,2RS,5SR)-2-[4-(Cyclohexylmethoxy)benzoyl]-5-{[4-oxo-6-(trifluoromethyl)-1,2,3-benzotriazin-3(4H)-yl]methyl}cyclopentanecarboxylic acid], the pIC50 in test [1] was 10.32; on MMP-1, 5.42; against MMP-10, 7.68; against MMP-14, 6.34.
On the same counts, the results for “(+)-(1RS,2RS,5SR)-2-{4-[(3,4-Dichlorobenzyl)oxy]benzoyl}-5-{[4-oxo-6-(trifluoromethyl)-1,2,3-benzotriazin-3(4H)-yl]methyl}cyclopentanecarboxylic acid [Example 28]” are 10.44, 4.77, 6.89 and 5.72.
`O=C(O)[C@H]1[C@H](Cn2nnc3ccccc3c2=O)CC[C@@H]1C(=O)c1ccc(OCc2cccc(Cl)c2)cc1` (racemic) [Example 2, (+/−)-(1RS,2RS,5SR)-2-{4-[(3-Chlorobenzyl)oxy]benzoyl}-5-[(4-oxo-1,2,3-benzotriazin-3(4H)-yl)methyl]cyclopentanecarboxylic acid]: the pIC50 in test [1] was 9.29; on MMP-1, < 4.40; on MMP-10, 6.51; at MMP-14, 6.32.
Consider `Cc1cccc(COc2ccc(C(=O)[C@H]3CC[C@@H](Cn4nnc5ccc(C)cc5c4=O)[C@@H]3C(=O)O)cc2)c1` (racemic) [Example 97, (+/−)-(1RS,2RS,5SR)-2-{4-[(3-Methylbenzyl)oxy]benzoyl}-5-[(6-methyl-4-oxo-1,2,3-benzotriazin-3(4H)-yl)methyl]cyclopentanecarboxylic acid], for which the pIC50 is 9.40 in test [1], < 4.40 at MMP-1, 6.80 at MMP-10 and 6.06 at MMP-14.
On the same counts, the results for `CCCCCCOc1ccc(C(=O)[C@@H]2CC[C@H](Cn3nnc4ccc(C)cc4c3=O)[C@H]2C(=O)O)cc1` (single isomer, unassigned) [Example 121, (+)-(1RS,2RS,5SR)-2-[4-(Hexyloxy)benzoyl]-5-[(6-methyl-4-oxo-1,2,3-benzotriazin-3(4H)-yl)methyl]cyclopentanecarboxylic acid] are 10.11, 4.89, 7.03 and 6.09.
On the same counts, the results for `O=C(O)[C@H]1[C@H](Cn2nnc3ccc(C(F)(F)F)cc3c2=O)CC[C@@H]1C(=O)c1ccc(SCc2ccc(Cl)c(Cl)c2)cc1` (racemic) [Example 79, (+/−)-(1RS,2RS,5SR)-2-{4-[(3,4-Dichlorobenzyl)sulphanyl]benzoyl}-5-{[4-oxo-6-(trifluoromethyl)-1,2,3-benzotriazin-3(4H)-yl]methyl}cyclopentanecarboxylic acid] are 9.60, 4.82, 6.51 and 5.06.
Turning to `O=C(O)[C@@H]1[C@@H](Cn2nnc3ccc(C(F)(F)F)cc3c2=O)CC[C@H]1C(=O)c1ccc(SCc2cccc(Cl)c2)cc1` (single isomer, unassigned) [Example 77, (+)-(1RS,2RS,5SR)-2-{4-[(3-Chlorobenzyl)sulphanyl]benzoyl}-5-{[4-oxo-6-(trifluoromethyl)-1,2,3-benzotriazin-3(4H)-yl]methyl}cyclopentanecarboxylic acid], the pIC50 in test [1] is 10.40; against MMP-1 it was 5.54; on MMP-10 it was 7.52; on MMP-14 it was 5.92.
Consider `CCCCCSc1ccc(C(=O)[C@H]2CC[C@@H](Cn3nnc4ccc(C(F)(F)F)cc4c3=O)[C@@H]2C(=O)O)cc1` (racemic) [Example 88, (+/−)-(1RS,2SR,5RS)-2-{[4-Oxo-6-(trifluoromethyl)-1,2,3-benzotriazin-3(4H)-yl]methyl}-5-[4-(pentylsulphanyl)benzoyl]cyclopentanecarboxylic acid], for which the pIC50 is 10.64 in test [1], 5.60 at MMP-1, 7.66 against MMP-10 and 6.36 on MMP-14.
On the same counts, the results for `Cc1ccc2nnn(C[C@H]3CC[C@@H](C(=O)c4ccc(OCc5cccc(Cl)c5)cc4)[C@@H]3C(=O)O)c(=O)c2c1` (single isomer, unassigned) [Example 104, (+)-(1RS,2RS,5SR)-2-{4-[(3-Chlorobenzyl)oxy]benzoyl}-5-[(6-methyl-4-oxo-1,2,3-benzotriazin-3(4H)-yl)methyl]cyclopentanecarboxylic acid] are 9.92, 5.41, 7.30 and 6.64.
On the same counts, the results for `Cc1ccc2nnn(C[C@H]3CC[C@@H](C(=O)c4ccc(OCc5cccc(OC(F)(F)F)c5)cc4)[C@@H]3C(=O)O)c(=O)c2c1` (single isomer, unassigned) [Example 110, (+)-(1RS,2SR,5RS)-2-[(6-Methyl-4-oxo-1,2,3-benzotriazin-3(4H)-yl)methyl]-5-(4-{[3-(trifluoromethoxy)benzyl]oxy}benzoyl)cyclopentanecarboxylic acid] are 10.06, < 4.40, 6.89 and 6.14.
On the same counts, the results for `O=C(O)[C@@H]1[C@@H](Cn2nnc3ccc(C(F)(F)F)cc3c2=O)CC[C@H]1C(=O)c1ccc(OCC2CCCC2)cc1` (single isomer, unassigned) [Example 44, (+)-(1RS,2RS,5SR)-2-[4-(Cyclopentylmethoxy)benzoyl]-5-{[4-oxo-6-(trifluoromethyl)-1,2,3-benzotriazin-3(4H)-yl]methyl}cyclopentanecarboxylic acid] are 10.62, 5.44, 7.55 and 7.06.
On to `O=C(O)[C@@H]1[C@@H](Cn2nnc3ccc(C(F)(F)F)cc3c2=O)CC[C@H]1C(=O)c1ccc(OCc2ccc(Cl)cc2)cc1` (single isomer, unassigned) [Example 25, (+)-(1RS,2RS,5SR)-2-{4-[(4-Chlorobenzyl)oxy]benzoyl}-5-{[4-oxo-6-(trifluoromethyl)-1,2,3-benzotriazin-3(4H)-yl]methyl}cyclopentanecarboxylic acid], for which the pIC50 was 10.89 in test [1], 5.64 against MMP-1, 7.72 at MMP-10 and 6.64 against MMP-14.
